Laboratory results published in publication PMC7367283, “A PIP2 substitute mediates voltage sensor-pore coupling in KCNQ activation” (Communications Biology, 2020).

Key:
[1] = system: KCNQ2/KCNQ3 channel; set-up: method as in PMID 22303005; details: cited from earlier work
[2] = biological target: IKs (KCNQ1 + KCNE1) (Homo sapiens, UniProt P51787); assay: IKs co-expressed with CiVSP (PIP2 depletion), two-electrode voltage clamp in Xenopus oocytes; type: cell-based; details: 100 µM chromanol 293B, bath application after 10 µM CP1
Excerpt: We co-expressed KCNQ1 with the voltage-dependent lipid phosphatase CiVSP[44] in Xenopus oocytes and recorded KCNQ1 currents using two-electrode voltage clamp with consecutive depolarizing voltage pulses. […] To more directly test CP1 effects, we applied CP1 to the intracellular side of the inside-out membrane patch that expressed IKs channels.

Row | effect on CP1-rescued IKs currents [2] | SMILES | effect on channel activity [1]
1 |  | O=P(O)(O)O[C@@H]1[C@@H](O)[C@H](O)[C@H](O)[C@H](O)[C@H]1OP(=O)(O)O [I(4,5)P2] | no effect on channel activity
2 | inhibited | CCS(=O)(=O)N(C)[C@H]1c2cc(C#N)ccc2OC(C)(C)[C@@H]1O (racemic) [Chromanol 293B, reference compound] | 
3 |  | O=P(O)(O)O[C@@H]1[C@H](O)[C@H](O)[C@@H](OP(=O)(O)O)[C@H](OP(=O)(O)O)[C@H]1O [I(1,4,5)P3] | no effect on channel activity
